From patent US9586951B2 (FUJIFILM Corporation, priority 2013, dated 2017)

These molecules were tested against T1, ATM (Homo sapiens, UniProt Q13315) (assay: ATM inhibition test (phosphorylation of Chk2 generated by ionizing radiation, AlphaScreen SureFire)). Conditions: phosphorylated Chk2 in NCI-H460 cells, ionizing radiation 8Gy, 1 hour after test compound treatment; read-out: ATM inhibitory activity.
T1 construct: detecting phosphorylation of Chk2 in a human non-small cell lung cancer cell line NCI-H460 (ATCC company); host or cells: NCI-H460 human non-small cell lung cancer cells
Format: cell-based
Summary of the method: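 Human NCI-H460 lung cancer cells were treated with compound for 1 h, then irradiated at 8Gy and incubated 1 h at 37° C. Phospho-Chk2 was quantified by AlphaScreen SureFire; inhibition % was normalised between irradiated untreated and non-irradiated untreated wells.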

T1 sequence (Q13315 whole entry): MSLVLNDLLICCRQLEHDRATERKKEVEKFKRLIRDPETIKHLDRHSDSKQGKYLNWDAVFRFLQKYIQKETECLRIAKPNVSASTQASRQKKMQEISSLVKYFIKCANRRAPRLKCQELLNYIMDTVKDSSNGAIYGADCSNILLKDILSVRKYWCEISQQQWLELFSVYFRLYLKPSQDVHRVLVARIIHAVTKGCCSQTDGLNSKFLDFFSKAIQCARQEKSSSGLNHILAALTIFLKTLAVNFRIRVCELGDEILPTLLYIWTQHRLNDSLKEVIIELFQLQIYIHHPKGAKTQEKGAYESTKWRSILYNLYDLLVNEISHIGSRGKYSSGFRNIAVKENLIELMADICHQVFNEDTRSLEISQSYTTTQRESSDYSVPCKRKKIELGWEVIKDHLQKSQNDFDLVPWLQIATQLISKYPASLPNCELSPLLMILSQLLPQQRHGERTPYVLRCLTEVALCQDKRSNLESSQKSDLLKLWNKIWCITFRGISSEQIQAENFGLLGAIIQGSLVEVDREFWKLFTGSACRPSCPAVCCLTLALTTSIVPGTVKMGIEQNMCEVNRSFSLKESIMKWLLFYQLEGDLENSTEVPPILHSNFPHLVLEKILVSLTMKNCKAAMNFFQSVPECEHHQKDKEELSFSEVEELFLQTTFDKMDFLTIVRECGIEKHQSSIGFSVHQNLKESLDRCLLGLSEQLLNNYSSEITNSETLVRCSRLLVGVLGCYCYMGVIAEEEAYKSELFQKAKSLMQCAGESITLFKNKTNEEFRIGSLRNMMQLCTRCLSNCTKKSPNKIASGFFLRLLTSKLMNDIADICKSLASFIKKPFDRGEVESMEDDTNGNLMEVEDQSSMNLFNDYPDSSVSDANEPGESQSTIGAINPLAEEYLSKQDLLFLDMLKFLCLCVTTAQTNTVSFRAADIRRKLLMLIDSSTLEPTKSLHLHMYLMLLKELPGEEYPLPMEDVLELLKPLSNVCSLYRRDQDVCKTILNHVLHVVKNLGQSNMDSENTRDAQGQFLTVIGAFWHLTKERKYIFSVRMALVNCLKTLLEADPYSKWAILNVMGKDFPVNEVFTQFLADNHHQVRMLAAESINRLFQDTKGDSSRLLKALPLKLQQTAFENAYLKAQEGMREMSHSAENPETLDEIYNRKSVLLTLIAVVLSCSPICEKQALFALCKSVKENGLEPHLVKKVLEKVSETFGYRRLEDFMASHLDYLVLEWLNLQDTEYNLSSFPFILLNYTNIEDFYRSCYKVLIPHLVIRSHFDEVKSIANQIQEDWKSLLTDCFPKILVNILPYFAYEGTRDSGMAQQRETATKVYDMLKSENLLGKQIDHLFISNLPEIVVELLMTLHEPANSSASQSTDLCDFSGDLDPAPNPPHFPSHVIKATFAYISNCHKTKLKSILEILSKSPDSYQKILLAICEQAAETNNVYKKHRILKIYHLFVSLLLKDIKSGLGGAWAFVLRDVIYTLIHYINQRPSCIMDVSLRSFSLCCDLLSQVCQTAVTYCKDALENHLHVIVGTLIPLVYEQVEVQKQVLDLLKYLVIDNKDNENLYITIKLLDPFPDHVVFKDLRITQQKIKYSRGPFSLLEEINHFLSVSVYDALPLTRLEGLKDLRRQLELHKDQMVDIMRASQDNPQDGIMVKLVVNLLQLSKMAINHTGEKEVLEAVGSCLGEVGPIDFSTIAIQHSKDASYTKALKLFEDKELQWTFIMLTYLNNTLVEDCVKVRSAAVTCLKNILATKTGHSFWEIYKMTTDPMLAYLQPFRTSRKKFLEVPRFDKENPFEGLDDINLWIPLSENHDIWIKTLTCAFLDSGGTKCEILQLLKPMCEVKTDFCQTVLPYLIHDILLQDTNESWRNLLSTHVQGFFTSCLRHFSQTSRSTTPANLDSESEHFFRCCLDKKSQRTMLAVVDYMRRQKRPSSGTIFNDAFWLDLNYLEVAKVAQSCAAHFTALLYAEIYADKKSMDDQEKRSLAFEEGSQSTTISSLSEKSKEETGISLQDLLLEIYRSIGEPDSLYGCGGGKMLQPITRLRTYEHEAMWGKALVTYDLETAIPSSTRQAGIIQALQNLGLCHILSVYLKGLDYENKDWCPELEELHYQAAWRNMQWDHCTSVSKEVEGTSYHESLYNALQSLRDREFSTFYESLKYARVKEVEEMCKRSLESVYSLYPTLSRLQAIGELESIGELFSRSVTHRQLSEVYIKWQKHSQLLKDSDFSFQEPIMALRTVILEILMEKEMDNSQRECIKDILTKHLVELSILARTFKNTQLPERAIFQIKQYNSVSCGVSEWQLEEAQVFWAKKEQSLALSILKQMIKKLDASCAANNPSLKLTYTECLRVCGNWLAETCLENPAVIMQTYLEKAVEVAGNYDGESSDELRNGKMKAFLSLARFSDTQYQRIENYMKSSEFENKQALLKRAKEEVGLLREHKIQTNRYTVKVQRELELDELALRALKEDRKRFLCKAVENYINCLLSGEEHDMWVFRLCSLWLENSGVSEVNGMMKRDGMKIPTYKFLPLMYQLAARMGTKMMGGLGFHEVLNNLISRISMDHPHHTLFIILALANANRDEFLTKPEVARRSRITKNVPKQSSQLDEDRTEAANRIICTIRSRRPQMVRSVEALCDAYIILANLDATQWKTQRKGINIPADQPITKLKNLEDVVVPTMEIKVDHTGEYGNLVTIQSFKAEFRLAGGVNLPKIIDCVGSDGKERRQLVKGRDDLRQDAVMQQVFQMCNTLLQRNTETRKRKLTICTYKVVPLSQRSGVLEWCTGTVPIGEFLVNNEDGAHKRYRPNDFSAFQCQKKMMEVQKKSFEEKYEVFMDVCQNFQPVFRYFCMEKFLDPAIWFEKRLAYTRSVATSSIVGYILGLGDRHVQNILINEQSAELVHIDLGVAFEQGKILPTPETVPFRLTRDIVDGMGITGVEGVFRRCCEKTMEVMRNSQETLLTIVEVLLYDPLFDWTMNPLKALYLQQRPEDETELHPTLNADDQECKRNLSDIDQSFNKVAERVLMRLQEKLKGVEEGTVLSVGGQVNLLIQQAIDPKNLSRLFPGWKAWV

Row | IC50 | Compound
1 | 100 to 500 nM | CCCCN1CCCC(Nc2ccc3c(c2)Cc2cccc(-c4cc(N5CCOCC5)cc(=O)[nH]4)c2O3)C1 (centres unmarked) [Example 2-19-4, 6-(7-((1-Butylpiperidin-3-yl)amino)-9H-xanthen-4-yl)-4-morpholinopyridin-2(1H)-one]
2 | 500 to 2000 nM | Cc1ccc(C(Nc2ccc3c(c2)Sc2cccc(-c4cc(N5CCOCC5)cc(=O)[nH]4)c2S3)C2CCCCC2)nc1 (centres unmarked) [Example 1-12-126, 6-(7-((Cyclohexyl(5-methylpyridin-2-yl)methyl)amino)thianthren-1-yl)-4-morpholino pyridin-2(1H)-one]
3 | 100 to 500 nM | Cc1cccc(CNc2ccc3c(c2)Cc2cccc(-c4nc(N5CCOCC5)cc(=O)[nH]4)c2O3)n1 [Example 2-52-1, 2-(7-(((6-Methylpyridin-2-yl)methyl)amino)-9H-xanthen-4-yl)-6-morpholino pyrimidine-4(3H)-one]
4 | 100 to 500 nM | O=c1cc(N2CCOCC2)cc(-c2cccc3c2Sc2ccc(NC4CCCN(C5CCOC5)C4)cc2S3)[nH]1 (centres unmarked) [Example 1-24-8, 4-Morpholino-6-(7-((1-(tetrahydrofuran-3-yl)piperidin-3-yl)amino)thianthren-1-yl)pyridin-2 (1H)-one]
5 | 500 to 2000 nM | O=c1cc(N2CCOCC2)cc(-c2cccc3c2Oc2ccc(NC4CCN(CCC5CCCCC5)CC4)cc2C3)[nH]1 [Example 2-30-5, 6-(7-((1-(2-Cyclohexylethyl)piperidin-4-yl)amino)-9H-xanthen-4-yl)-4-morpholino pyridin-2 (1H)-one]
6 | 100 to 500 nM | COCC(CN1CCN(C)CC1)Nc1ccc2c(c1)Sc1cccc(-c3cc(N4CCOCC4)cc(=O)[nH]3)c1S2 (centres unmarked) [Example 1-17-3, 6-(7-((1-Methoxy-3-(4-methylpiperazin-1-yl)propan-2-yl)amino)thianthren-1-yl)-4-morpholinopyridin-2(1H)-one]
7 | 100 to 500 nM | CC(Nc1ccc2c(c1)Cc1cccc(-c3cc(N4CCOCC4)cc(=O)[nH]3)c1O2)c1ccnc(F)c1 (centres unmarked) [Example 2-14-25]
8 | 100 to 500 nM | COc1ccc(CCN2CCC(Nc3ccc4c(c3)Cc3ccnc(-c5cc(N6CCOCC6)cc(=O)[nH]5)c3O4)CC2)cc1 [Example 2-41-5, 6-(7-((1-(4-Methoxyphenethyl)piperidin-4-yl)amino)-5H-chromeno[2,3-c]pyridin-1-yl)-4-morpholino pyridin-2(1H)-one]
9 | 100 to 500 nM | Cc1ccc(C(Nc2ccc3c(c2)Sc2cccc(-c4cc(N5CCOCC5)cc(=O)[nH]4)c2S3)C2CN(C)C2)nc1 (centres unmarked) [Example 1-22-8, 6-(7-(((1-Methylazetidin-3-yl)(5-methylpyridin-2-yl)methyl)amino)thianthren-1-yl)-4-morpholino pyridin-2 (1H)-one]
10 | 100 to 500 nM | O=c1cc(N2CCOCC2)cc(-c2cccc3c2Oc2ccc(NCc4cncc(N5CCCC5)c4)cc2C3)[nH]1 [Example 2-2-63, 4-Morpholino-6-(7-(((5-(pyrrolidin-1-yl)pyridin-3-yl)methyl)amino)-9H-xanthen-4-yl)pyridin-2(1H)-one]
11 | 100 to 500 nM | CC(Nc1ccc2c(c1)Sc1cccc(-c3cc(N4CCOCC4)cc(=O)[nH]3)c1S2)c1nccs1 (centres unmarked) [Example 1-12-67, 4-Morpholino-6-(7-((1-(thiazol-2-yl)ethyl)amino)thianthren-1-yl)pyridin-2 (1H)-one]
12 | 500 to 2000 nM | Nc1ccc2c(c1)Cc1cc(F)cc(-c3cc(N4CCOCC4)cc(=O)[nH]3)c1O2 [Example 2-48-1, 6-(7-amino-2-fluoro-9H-xanthen-4-yl)-4-morpholinopyridin-2(1H)-one]
13 | 100 to 500 nM | O=c1cc(N2CCOCC2)cc(-c2cccc3c2Oc2ccc(NC4CCN(CCc5ccccc5Cl)CC4)cc2C3)[nH]1 [Example 2-30-9, 6-(7-((1-(2-Chlorophenethyl)piperidin-4-yl)amino)-9H-xanthen-4-yl)-4-morpholino pyridin-2(1H)-one]
14 | 500 to 2000 nM | CC(Nc1ccc2c(c1)Cc1cccc(-c3cc(N4CCOCC4)cc(=O)[nH]3)c1O2)c1ncc(CO)cn1 (centres unmarked) [Example 2-14-66, 6-(7-((1-(5-(Hydroxymethyl)pyrimidin-2-yl)ethyl)amino)-9H-xanthen-4-yl)-4-morpholino pyridin-2(1H)-one]
15 | 100 to 500 nM | Cc1ccc(CN2CCC(Nc3ccc4c(c3)Cc3cccc(-c5cc(N6CCOCC6)cc(=O)[nH]5)c3O4)CC2)cn1 [Example 2-28-10, 6-(7-((1-((6-Methylpyridin-3-yl)methyl)piperidin-4-yl)amino)-9H-xanthen-4-yl)-4-morpholino pyridin-2(1H)-one]
16 | 500 to 2000 nM | Cc1cnc(C(C)Nc2ccc3c(c2)Cc2cccc(-c4cc(N5CCOCC5)cc(=O)[nH]4)c2O3)cn1 (single isomer, unassigned) [Example 2-14-90-1, 6-(7-((1-(5-methylpyrazin-2-yl)ethyl)amino)-9H-xanthen-4-yl)-4-morpholinopyridin-2(1H)-one]
17 | 100 to 500 nM | Cc1ccc(C(C[C@@H]2CCCN2)Nc2ccc3c(c2)Sc2cccc(-c4cc(N5CCOCC5)cc(=O)[nH]4)c2S3)nc1 (single isomer, unassigned) [Example 12-1]
18 | 100 to 500 nM | N#CCN1CCC(Nc2ccc3c(c2)Cc2cccc(-c4cc(N5CCOCC5)cc(=O)[nH]4)c2O3)CC1 [Example 2-30-1, 2-(4-((5-(4-morpholino-6-oxo-1,6-dihydropyridin-2-yl)-9H-xanthen-2-yl)amino)piperidin-1-yl)acetonitrile]
19 | 100 to 500 nM | O=c1cc(N2CCOCC2)cc(-c2cccc3c2Sc2ccc(NC4CCN(C5CCCCC5)C4)cc2S3)[nH]1 (centres unmarked) [Example 1-24-9, 6-(7-((1-Cyclohexylpyrrolidin-3-yl)amino)thianthren-1-yl)-4-morpholinopyridin-2(1H)-one]
20 | 100 to 500 nM | CN(C)c1ccc(CNc2ccc3c(c2)Cc2cccc(-c4cc(N5CCOCC5)cc(=O)[nH]4)c2O3)cn1 [Example 2-2-8, 6-(7-(((6-(Dimethylamino)pyridin-3-yl)methyl)amino)-9H-xanthen-4-yl)-4-morpholino pyridin-2(1H)-one]
21 | 100 to 500 nM | COCCN(C)CCNc1ccc2c(c1)Sc1cccc(-c3cc(N4CCOCC4)cc(=O)[nH]3)c1S2 [Example 1-10-12, 6-(7-((2-((2-Methoxyethyl) (methyl)amino)ethyl)amino)thianthren-1-y1)-4-morpholino pyridin-2(1H)-one]
22 | 100 to 500 nM | CC1CCCN(CC(CO)Nc2ccc3c(c2)Sc2cccc(-c4cc(N5CCOCC5)cc(=O)[nH]4)c2S3)C1 (centres unmarked) [Example 1-37-1, 6-(7-((1-hydroxy-3-(3-methylpiperidin-1-yl)propan-2-yl)amino)thianthren-1-yl)-4-morpholinopyridin-2(1H)-one]
23 | 500 to 2000 nM | Cc1cccc(CN(CC(=O)O)c2ccc3c(c2)Cc2cccc(-c4cc(N5CCOCC5)cc(=O)[nH]4)c2O3)n1 [Example 2-17, 2-(((6-methylpyridin-2-yl)methyl)(5-(4-morpholino-6-oxo-1,6-dihydropyridin-2-yl)-9H-xanthen-2-yl)amino)acetic acid]
24 | 100 to 500 nM | CC(Nc1ccc2c(c1)Cc1cccc(-c3cc(N4CCOCC4)cc(=O)[nH]3)c1O2)c1ncccn1 (centres unmarked) [Example 2-14-78, 4-Morpholino-6-(7-((1-(pyrimidin-2-yl)ethyl)amino)-9H-xanthen-4-yl) pyridin-2(1H)-one]
25 | 100 to 500 nM | O=c1cc(N2CCOCC2)cc(-c2cccc3c2Sc2ccc(NC4CCN(C5CCOCC5)C4)cc2S3)[nH]1 (centres unmarked) [Example 1-24-13, 4-Morpholino-6-(7-((1-(tetrahydro-2H-pyran-4-yl)pyrrolidin-3-yl)amino)thianthren-1-yl)pyridin-2 (1H)-one]
26 | 100 to 500 nM | Cc1ccnc(CN2CCC(Nc3ccc4c(c3)Cc3cccc(-c5cc(N6CCOCC6)cc(=O)[nH]5)c3O4)CC2)c1 [Example 2-28-19, 6-(7-((1-((4-Methylpyridin-2-yl)methyl)piperidin-4-yl)amino)-9H-xanthen-4-yl)-4-morpholino pyridin-2(1H)-one]
27 | 100 to 500 nM | O=c1cc(N2CCOCC2)cc(-c2cccc3c2Oc2ccc(NCc4ccnc(Cl)c4)cc2S3)[nH]1 [Example 4-8-14, 6-(8-(((2-Chloropyridin-4-yl)methyl)amino)phenoxathiin-4-yl)-4-morpholino pyridin-2(1H)-one]
28 | 100 to 500 nM | COc1cncc(CN2CCC(Nc3ccc4c(c3)Sc3cccc(-c5cc(N6CCOCC6)cc(=O)[nH]5)c3S4)CC2)c1 [Example 1-24-16, 6-(7-((1-((5-Methoxypyridin-3-yl)methyl)piperidin-4-yl)amino)thianthren-1-yl)-4-morpholinopyridin-2(1H)-one]
29 | 100 to 500 nM | O=c1cc(N2CCOCC2)cc(-c2cccc3c2Oc2ccc(NC4CCN(CCc5ccc(F)cc5)CC4)cc2C3)[nH]1 [Example 2-30-14, 6-(7-((1-(4-Fluorophenethyl)piperidin-4-yl)amino)-9H-xanthen-4-yl)-4-morpholino pyridin-2(1H)-one]
30 | 100 to 500 nM | O=C(OCc1ccccc1)N1C[C@@H](N2CCOCC2)[C@H](Nc2ccc3c(c2)Sc2cccc(-c4cc(N5CCOCC5)cc(=O)[nH]4)c2S3)C1 (racemic) [Example 11-1, Benzyl 3-morpholino-4-((6-(4-morpholino-6-oxo-1,6-dihydropyridin-2-yl)thianthren-2-yl)amino)pyrrolidine-1-carboxylate]

Row | Compound | IC50
31 | CC1CC(Nc2ccc3c(c2)Cc2cccc(-c4cc(N5CCOCC5)cc(=O)[nH]4)c2O3)CCN1C(=O)OC(C)(C)C (centres unmarked) [Example 2-14-84, tert-Butyl 2-methyl-4-((5-(4-morpholino-6-oxo-1,6-dihydropyridin-2-yl)-9H-xanthen-2-yl)amino) piperidine-1-carboxylate] | 500 to 2000 nM
32 | O=C(Nc1ncc(CNc2ccc3c(c2)Sc2cccc(-c4cc(N5CCOCC5)cc(=O)[nH]4)c2S3)cn1)N1CCCC1 [Example 1-12-48, N-(5-(((6-(4-Morpholino-6-oxo-1,6-dihydropyridin-2-yl)thianthren-2-yl)amino)methyl)pyrimidin-2-yl)pyrrolidine-1-car-boxamide] | 100 to 500 nM
